In one data set the test system is RXR-associated kinase. Kind of data set: Effect of signalling pathway modulators on RXR-associated kinase activity in RXR transfected cells. The format is cell-based. As to conditions: cell treatment: anisomycin 50 μM; pathway inhibitors 1 hour; insulin 30 minutes. As for the experimental part: (§1) The cells were stimulated with anisomycin (50 μM) and COMPOUND-1 (10^−7 M) as indicated, then the cell lysates were subjected to immunoprecipitation and in vitro kinase assay (bottom panel).
(§2) Activation of stress pathways lead to the phosphorylation of RXR (22,23), and MKK4/SEK1 is reported to associate with and phosphorylate RXR directly (23). […] Anisomycin treatment led to phosphorylation of RXR resulting in an up-shift of the RXR band on SDS-PAGE (22).
To further study the effect of signaling transduction pathways on the RXR-associated kinase activity, RXR transfected cells were incubated with inhibitors of the PI3 kinase (wortmannin), p42/44 MAPK (PD98059), or p38 MAPK pathways (SB202190 or SB203580) for 1 hour or stimulated with insulin or 10% serum for 30 minutes. RXR complexes were then isolated and the in vitro kinase assays were performed in the usual manner.

In a further data set the target is CK1α (Homo sapiens, UniProt P48729). Kind of data set: In vitro kinase assay of RXR immunoprecipitated complexes with inhibitor in the assay mixture. The data set is classed as biochemical. Particulars: RXR immunoprecipitated complexes from Compound 1-treated HEK293 Flag-RXR cells; read-out: IC50 for inhibition of phosphorylation of RXR and p160.
CK1α, sequence (P48729 whole entry, one chain of several, canonical isoform): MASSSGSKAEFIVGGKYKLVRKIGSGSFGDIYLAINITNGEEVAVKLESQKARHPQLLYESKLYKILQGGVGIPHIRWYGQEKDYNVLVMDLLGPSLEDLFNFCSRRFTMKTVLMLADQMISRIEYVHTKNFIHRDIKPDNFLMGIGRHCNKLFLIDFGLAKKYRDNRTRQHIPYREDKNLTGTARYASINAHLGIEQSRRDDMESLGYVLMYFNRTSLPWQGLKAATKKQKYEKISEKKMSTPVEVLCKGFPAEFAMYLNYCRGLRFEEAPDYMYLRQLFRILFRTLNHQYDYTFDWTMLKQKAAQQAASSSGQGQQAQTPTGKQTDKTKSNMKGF
The test system of another data set is CK1 isoforms. Particulars: literature (refs 25,26); read-out: reported IC50 for inhibition of CK1 isoforms; cited from earlier work.
The next data set has as its target T1, RXRα (Homo sapiens, UniProt P19793).
T1 construct: expressed in transfected cells; host or cells: HEK293
T1 sequence (P19793 1-462): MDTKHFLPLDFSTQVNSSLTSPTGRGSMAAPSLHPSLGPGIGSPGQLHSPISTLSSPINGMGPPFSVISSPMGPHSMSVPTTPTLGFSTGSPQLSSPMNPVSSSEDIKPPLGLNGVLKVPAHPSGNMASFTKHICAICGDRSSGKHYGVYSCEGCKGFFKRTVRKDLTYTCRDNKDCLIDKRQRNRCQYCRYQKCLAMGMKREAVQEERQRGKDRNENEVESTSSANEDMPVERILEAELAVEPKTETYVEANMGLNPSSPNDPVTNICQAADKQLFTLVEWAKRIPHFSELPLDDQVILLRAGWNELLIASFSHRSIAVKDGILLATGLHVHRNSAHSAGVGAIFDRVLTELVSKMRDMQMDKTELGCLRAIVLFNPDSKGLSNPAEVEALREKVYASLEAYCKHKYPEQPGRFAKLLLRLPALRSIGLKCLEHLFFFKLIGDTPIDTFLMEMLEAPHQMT
The data set can be described thus: Ligand-dependent recruitment of protein kinase to Flag-RXRα immunocomplexes (immunoprecipitation, in vitro kinase assay). Particulars: for recruitment of protein kinase to RXR immunocomplexes: transfected HEK293 cells, ligands at 10^-6 M, 15 minutes. The data set is classed as cell-based. An excerpt:
Total cell lysates were immunoprecipitated with anti-Flag antibody (M2). An aliquot of the immunocomplexes were used for the in vitro kinase reaction with [γ-^32P]ATP and separated on SDS-PAGE. The phosphorylated proteins were detected by autoradiography (right panel). To show the presence of equal amounts of RXR in the immunoprecipitates, additional aliquots of the immunocomplexes were subjected to immunoblotting with a polyclonal antibody (D20) against RXR (left panel).
In vitro kinase reaction assay was performed.

The next data set has as its system RXR:RAR heterodimers. The data set can be described thus: Transactivation assay, pRARE-Luc reporter in CV-1 cells. The data set is classed as cell-based. As to conditions: CV-1 cells cotransfected with RXRα and RARα; 10^-7 M, 16 hr. As for the experimental part:
(§3) FIGS. 4A, 4B and 4C display evidence of transactivation by RXRα homodimers or RXRα:RARα heterodimers is not modulated by CK1α. For the left panel, CV1 cells were cotransfected with pFlag-RXRα, reporter plasmid pRXRE-Luc, β-galactosidase expression vector, plus increasing amount of CK1α expression vector (lane 1 and 2: 0 ng; lane 3: 50 ng; lane 4: 100 ng; lane 5: 200 ng), or sense strand CK1α or double-strand RNAi CK1α, or sense strand CK1ε or double-strand RNAi CK1ε. […] Data are presented as the activity of luciferase normalized to that of β-galactosidase activity, which served as an internal control for transfection efficiency and are the mean of three independent experiments with triplicates for each. For the middle panel, CV1 cells were cotransfected with pFlag-RXRα, pRAR-V5, reporter plasmid pRARE-Luc, β-galactosidase expression vector, plus sense strand CK1α or double-strand RNAi CK1α. […] Data are presented as the activity of luciferase normalized to that of β-galactosidase activity and are the mean of three independent experiments with triplicates for each. CK1α could efficaciously be depleted in CV-1 cells by small double-strand RNAi, judged by immunoblotting the total cell lysates with anti-CK1α antibodies (left panel).
Similar transfection experiments were also performed using pRARE-Luc as reporter with cotransfection of RXRα and RARα. […]

The subject of a further data set is MKK4. Kind of data set: MKK4 phosphorylation (stress pathway activation) by immunoblotting. The data set is classed as cell-based. As to conditions: HEK293 transfected with RXR or RXR plus MKK4. The procedure: as §1, §2
(§4) For immunoblotting, proteins from cell lysates or immunoprecipitates were subjected to separation on SDS-PAGE (38). The resolved polypeptides were transferred to PVDF membrane and analyzed by immunoblotting (39). The targeted proteins were detected using the enhanced chemiluminescence immunodetection system (Amersham). DNA content analysis by FACS was performed on FACScan™ (Becton Dickinson) as described (40).
In general terms: Immunoblotting shows a protein as a band on a membrane.

The test system of data set [1] is DT40 cells. Kind of data set: Activation of caspases 3 and 9. The format is cell-based. The procedure:
(§5) Caspase activities were measured following manufacturer's protocols and presented as fold increase in relative to control.
(§6) The sensitivity of the wild-type cells and the cells stably expressing RXR to RXR agonist treatment.

Data set [2] deals with DT40RXR cells. Kind of data set: Activation of caspases 3 and 9. The data set is classed as cell-based. As for the experimental part:
as §5, §6

The test system of data set [3] is DT40 cells. Kind of data set: Apoptosis by FACS DNA content analysis (propidium iodide). The format is cell-based. As to conditions: 10 nM, 3 days, cells with DNA content less than G1, 3.5% without agonist. As for the experimental part:
(§7) Cells having a DNA content less than the G1 population were considered as apoptotic cells.
as §4
For orientation: In flow cytometry, cells or beads pass a laser one at a time.

Data set [4] relates to DT40RXR cells. Described as above. The data set is classed as cell-based. Particulars: 10 nM, 3 days, 10.4% without agonist. As for the experimental part: as §7, §4
Another data set deals with Jurkat cells. The description is as above. The format is cell-based. Particulars: 10 nM, 3 days, 2.8% without agonist. As for the experimental part: as §7, §4
The subject of a further data set is JurkatRXR cells. The data set is described as above. The data set is classed as cell-based. As to conditions: 10 nM, 3 days, 11.9% without agonist. As for the experimental part: as §7, §4
Data set [5] concerns DT40RXR and JurkatRXR cells. The data set can be described thus: Cell death/growth inhibition in RXR-overexpressing versus parental cells. The format is cell-based. Particulars: JurkatRXR vs parental cells, 3 days. As for the experimental part: FIGS. 1A, 1B and 1C show RXR and RXR agonist dependent cell growth inhibition: DT40, DT40RXR, Jurkat, and JurkatRXR cells (5×10^3 cells/ml) were treated with various doses of AGN19424 for 3 days (the left two panels). Viable cells were counted and were presented as percentage of control (cells without treatment).
Overexpressing activated RXR may mediate growth inhibitory effects in some human carcinoma cells (17). To confirm that the effects of RXR agonists were mediated by RXR proteins and explore the molecular mechanism, two RXR stably expression cell lines were generated using B lymphoma cell (DT40) and T lymphoma cells (Jurkat cells), which are named DT40RXR and JurkatRXR (FIG. 1A, left panel).
as §6

The next data set concerns RXRα homodimers. Kind of data set: Transactivation assay, pRXRE-Luc (DR-1) reporter in CV-1 cells. The format is cell-based. Particulars: 10^-8 M, 16 hr, CV1 cells. The procedure:
as §3
CK1α is the smallest in the CK1 family. […] The role of CK1α in transactivation by RXR homodimers and RXR:RAR heterodimers was determined. […]

A further data set deals with Jurkat-pSupCK1α cells. Kind of data set: Apoptotic populations in CK1α-suppressed Jurkat cells. The data set is classed as cell-based. Particulars: 3 days. As for the experimental part: FIGS. 4J, 4K, 4L and 4M show effects of depletion of CK1α on Jurkat cells: A cell line (Jurkat-pSupCK1α) in which CK1α expression is suppressed by stably expressing SiRNA CK1α was generated from Jurkat cells (left panel). The effect of COMPOUND-1 (4 days) on growth inhibition of Jurkat and Jurkat-pSupCK1α cells was measured (the second panel).
Based on this observation, CK1α negative regulation RXR-mediated apoptosis. HEK293RXR and Jurkat cells were used to deplete the expression of endogenous CK1α by stably transfecting CK1α RNAi expression vector. Although the depletion of endogenous CK1α in both cell lines was not very efficient, (with a 30% to 50% decrease for the expression of CK1α achieved in both cell lines) after decreasing the CK1α expression, both cell lines were becoming very sensitive to the treatment of RXR agonist in term of the cell growth inhibition (FIGS. 4J, 4K, 4L and 4M). Apoptotic cell populations of Jurkat-pSupCK1 (containing the CK1α RNAi construct) is increased compared to the parental cell lines in the presence of RXR agonist (FIGS. 4J, 4K, 4L and 4M).

pIC50: −log10 of the molar value.

With `Oc1ccc(-c2nc(-c3ccncc3)c(-c3ccc(F)cc3)[nH]2)cc1` [SB202190], the “effect on kinase activities in the RXR immunocomplexes” value (“effect on kinase activities” below) in the data set with RXR-associated kinase is given as “not influenced to a significant degree”.
For `COc1cccc(-c2cc(=O)c3ccccc3o2)c1N` [PD98059], the “effect on kinase activities” value in the data set with RXR-associated kinase was “not influenced to a significant degree”.
One may read the pIC50 as −log10 of the IC50, conventionally taken in molar units. Take `NCCNS(=O)(=O)c1ccc(Cl)c2ccncc12` [CK1-7, N-(2-amino-ethyl)-5-chloroisoquinoline-8-sulfonamide]: the pIC50 is ~4.52 at CK1α and 4.00 to 5.00 in the data set with CK1 isoforms.
For `C/C(=C\c1ccc(C(=O)O)cc1)c1ccc2c(c1)C(C)(C)CCC2(C)C` [TTNPB, reference compound], the “recruitment of protein kinase to RXR immunocomplexes” value at RXRα is “did not recruit the protein kinase”. Moreover, the “activation of RXR:RAR heterodimers (pRARE-Luc)” value in the data set with RXR:RAR heterodimers is “activated”.
Regarding `C[S+]([O-])c1ccc(-c2nc(-c3ccncc3)c(-c3ccc(F)cc3)[nH]2)cc1` (stereo not shown) [SB203580], the “effect on kinase activities” value in the data set with RXR-associated kinase is given as “not influenced to a significant degree”.
On to `COc1ccc(C[C@H]2NC[C@H](O)[C@H]2OC(C)=O)cc1` [anisomycin], for which the “effect on kinase activities” value in the data set on RXR-associated kinase was “not affected by anisomycin treatment”. Further, the “phosphorylation of MKK4” value in the data set with MKK4 is “increased phosphorylation of both endogenous and overexpressed MKK4”.
For the compound “insulin: insulin used to stimulate RXR transfected cells for 30 minutes”, in the data set with RXR-associated kinase, the “effect on kinase activities” value was “not influenced to a significant degree”.
In the case of `OO` [Compound H2O2, hydrogen peroxide, reference compound], the “activation of caspases 3 and 9” value with DT40 cells [1] was “could activate caspases 3 and 9”; in the data set on DT40RXR cells [2], “could activate caspases 3 and 9”.
For the compound `CC(/C=C/C1CC1(C)c1ccc2c(c1)C(C)(C)CCC2(C)C)=C\C(=O)O` (stereo not shown) [Compound 1], the apoptotic cells is listed as 4.5% in the data set on DT40 cells [3], 57.3% in the data set with DT40RXR cells [4], 3.4% with Jurkat cells and 36.4% in the data set on JurkatRXR cells. In addition, the “activation of caspases 3 and 9” value in the data set on DT40RXR cells [2] is “activated”. In addition, in data set [5], the “efficacy in cell death/growth inhibition on overexpression of RXR” value was “dramatically increase the efficacy”. Besides, the “kinase activity in Flag-RXR immunoprecipitated complex when ligand added only to the in vitro kinase reaction” value on RXRα (immunoprecipitation in absence of Compound 1, added later to kinase reaction mixture) was “could not be detected”. For the same compound, the “recruitment of protein kinase to RXR immunocomplexes” value on RXRα is “contained the kinase that could phosphorylate RXR and the 160 kDa protein”. Further, the DR-1 luciferase expression entry in the data set on RXRα homodimers is given as “greatly stimulated”. Moreover, the apoptotic populations result in the data set with Jurkat-pSupCK1α cells is “dramatic increase of apoptotic populations”.

The record behind these values is US20090203720A1, “Methods for inhibiting cell growth” (priority 2003, published 2009).
